# Laboratory results reported in patent US20100234464A1, “COMPOUNDS FOR THE TREATMENT OF METABOLIC DISORDERS” (WELLSTAT THERAPEUTICS CORPORATION, priority 2006, published 2010).
# System: male db/db mice
# Experiment: Antidiabetic efficacy of oral compound in male db/db mice (nonfasting serum glucose and triglycerides after 14 days)
# Format: in vivo
# Settings: for Serum triglycerides, Mean ± SEM / Serum glucose, Mean ± SD: 100 mg/kg/day oral gavage once daily for 2 weeks, nonfasting serum, N = 5 mice/group; for Serum triglycerides, Mean ± SEM: vehicle 220.8 ± 62.1; for Serum glucose, Mean ± SD: vehicle 735.0 ± 66.0; for Effect on nonfasting serum glucose relative to vehicle-treated mice (in words) / Effect on nonfasting serum triglycerides relative to vehicle-treated mice (in words): 100 mg/kg/day oral, 2 weeks
# Description: Male db/db mice have a defect in the receptor for the appetite-regulating protein leptin and consequently develop hyperphagia, obesity, insulin resistance, hyperglycemia, and hypertriglyceridemia. Furthermore, male db/db mice undergo progressive islet failure, resulting in a transition from hyperinsulinemia to insulin deficiency.
# Male db/db mice (10 weeks old) were divided into weight-matched groups of 5 mice each. Age-matched male C57BL/6 mice were used as lean control animals. Mice received once-daily oral (gavage) doses of the vehicle (1% hydroxypropylmethylcellulose in water), Compound BI, Compound CF, or Compound DN for two weeks. Treatment groups and drug doses were as follows. • 1. Vehicle • 2. Compound BI 100 mg/kg/day • 3. Compound CF 100 mg/kg/day • 4. Compound DN 100 mg/kg/day
# Nonfasting blood samples were collected after 14 days of treatment for determination of serum glucose, triglycerides, and free fatty acids.
smiles,measurement,value
"Cc1cccc(C)c1COc1cccc(C(=O)CCC(=O)O)c1 [Compound BI, 4-(3-(2,6-Dimethylbenzyloxy)phenyl)-4-oxobutyric acid]","Serum triglycerides, Mean ± SEM",85.8 ± 13.0 mg/dL
same,"Serum glucose, Mean ± SD",257.0 ± 57.0 mg/dL
same,Effect on nonfasting serum glucose relative to vehicle-treated mice (in words),significantly reduced
same,Effect on nonfasting serum triglycerides relative to vehicle-treated mice (in words),significantly reduced
"Cc1cccc(C)c1COc1cccc(CC(=O)O)c1 [Compound CF, 3-(2,6-Dimethylbenzyloxy)phenylacetic acid]","Serum triglycerides, Mean ± SEM",90.5 ± 17.4 mg/dL
same,"Serum glucose, Mean ± SD",441.0 ± 162.0 mg/dL
same,Effect on nonfasting serum glucose relative to vehicle-treated mice (in words),significantly reduced
same,Effect on nonfasting serum triglycerides relative to vehicle-treated mice (in words),significantly reduced
"O=C(O)Cc1cccc(OCc2ccc(C(F)(F)F)cc2C(F)(F)F)c1 [Compound DN, 3-(2,4-Bis(trifluoromethyl)benzyloxy)phenylacetic acid]","Serum triglycerides, Mean ± SEM",157.2 ± 40.3 mg/dL
same,"Serum glucose, Mean ± SD",396.0 ± 84.0 mg/dL
same,Effect on nonfasting serum glucose relative to vehicle-treated mice (in words),significantly reduced
same,Effect on nonfasting serum triglycerides relative to vehicle-treated mice (in words),significantly reduced
